Reference: ChEMBL document CHEMBL1201862, “PubChem BioAssay data set” (2004)
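Exposure lasted 48 hours, with cells grown in 96-well plates and compounds tested at five concentrations. At the GI50, growth is halved.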 Calls of active or inactive are those of the source. No stated cut-off is given here; in the data, active = GI50 up to about 1.1 µM and inactive = higher.

Tests used:
Assay in all cases: NCI-60 cell line screen, 48 h
[1] = test system: 786-0
[2] = test system: A498
[3] = test system: A549
[4] = test system: ACHN
[5] = test system: BT-549
[6] = test system: CAKI-1
[7] = test system: CCRF-CEM
[8] = test system: COLO 205
[9] = test system: DU-145
[10] = test system: EKVX
[11] = test system: HCC 2998
[12] = test system: HCT-116
[13] = test system: HCT-15
[14] = test system: HL-60
[15] = test system: HOP-62
[16] = test system: HOP-92
[17] = test system: HT-29
[18] = test system: Hs-578T
[19] = test system: IGROV-1
[20] = test system: K562
[21] = test system: KM12
[22] = test system: LOX IMVI
[23] = test system: M14
[24] = test system: MCF7
[25] = test system: MDA-MB-231
[26] = test system: MDA-MB-435
[27] = test system: MOLT-4
[28] = test system: Malme-3M
[29] = test system: NCI-H226
[30] = test system: NCI-H23
[31] = test system: NCI-H460
[32] = test system: NCI-H522
[33] = test system: NCI/ADR-RES
[34] = test system: OVCAR-3
[35] = test system: OVCAR-4
[36] = test system: OVCAR-5
[37] = test system: OVCAR-8
[38] = test system: PC-3
[39] = test system: RPMI-8226
[40] = test system: RXF 393
[41] = test system: SF-268
[42] = test system: SF-295
[43] = test system: SF-539
[44] = test system: SK-MEL-28
[45] = test system: SK-MEL-2
[46] = test system: SK-MEL-5
[47] = test system: SK-OV-3
[48] = test system: SN12C
[49] = test system: SNB-19
[50] = test system: SNB-75
[51] = test system: SR
[52] = test system: SW-620
[53] = test system: T47D
[54] = test system: TK-10
[55] = test system: U-251
[56] = test system: UACC-257
[57] = test system: UACC-62
[58] = test system: UO-31
[59] = test system: MDA-N

## COC(=O)C1=C(OC(=O)/C(=C/c2ccc(Cl)cc2)c2ccccc2)C(C(=O)OC)[C@@]2(O)[C@@H](C(=O)OC)[C@H](C)C[C@@H]1[C@@H]2C(=O)OC (stereo partly specified)
[1]
  GI50: > 100 µM (inactive)
[2]
  GI50: 5.55 µM (inactive)
[3]
  GI50: 7.85 µM (inactive)
[4]
  GI50: > 100 µM (inactive)
[5]
  GI50: 22.2 µM (inactive)
[6]
  GI50: > 100 µM (inactive)
[7]
  GI50: > 100 µM (inactive)
[8]
  GI50: > 100 µM (inactive)
[9]
  GI50: > 100 µM (inactive)
[10]
  GI50: 27.2 µM (inactive)
[11]
  GI50: > 100 µM (inactive)
[12]
  GI50: > 100 µM (inactive)
[13]
  GI50: > 100 µM
[14]
  GI50: > 100 µM (inactive)
[15]
  GI50: > 100 µM (inactive)
[16]
  GI50: 0.573 µM (active)
[17]
  GI50: > 100 µM (inactive)
[18]
  GI50: 37 µM (inactive)
[19]
  GI50: 23.6 µM (inactive)
[20]
  GI50: > 100 µM (inactive)
[21]
  GI50: > 100 µM (inactive)
[22]
  GI50: > 100 µM (inactive)
[23]
  GI50: > 100 µM (inactive)
[24]
  GI50: > 100 µM (inactive)
[25]
  GI50: > 100 µM (inactive)
[26]
  GI50: > 100 µM (inactive)
[27]
  GI50: > 100 µM (inactive)
[28]
  GI50: > 100 µM (inactive)
[29]
  GI50: > 100 µM (inactive)
[30]
  GI50: 9.73 µM (inactive)
[31]
  GI50: 61.4 µM (inactive)
[32]
  GI50: 6 µM (inactive)
[33]
  GI50: 37.4 µM (inactive)
[34]
  GI50: > 100 µM (inactive)
[35]
  GI50: > 100 µM (inactive)
[36]
  GI50: > 100 µM (inactive)
[37]
  GI50: 4.45 µM (inactive)
[38]
  GI50: 37.5 µM (inactive)
[39]
  GI50: > 100 µM (inactive)
[40]
  GI50: 3.01 µM (inactive)
[41]
  GI50: > 100 µM (inactive)
[42]
  GI50: 6.79 µM (inactive)
[43]
  GI50: > 100 µM (inactive)
[44]
  GI50: > 100 µM (inactive)
[45]
  GI50: > 100 µM (inactive)
[46]
  GI50: > 100 µM (inactive)
[47]
  GI50: > 100 µM (inactive)
[48]
  GI50: > 100 µM (inactive)
[49]
  GI50: 77.8 µM (inactive)
[50]
  GI50: 29.6 µM (inactive)
[51]
  GI50: > 100 µM (inactive)
[52]
  GI50: > 100 µM (inactive)
[53]
  GI50: > 100 µM (inactive)
[54]
  GI50: > 100 µM (inactive)
[55]
  GI50: 26.7 µM (inactive)
[56]
  GI50: > 100 µM (inactive)
[57]
  GI50: 83.6 µM (inactive)
[58]
  GI50: > 100 µM (inactive)

## COc1ccc(C2CC(=O)CC(c3ccc(OC)cc3)C23C(=O)NC(=S)NC3=O)cc1 (stereo unspecified)
[1]
  GI50: > 100 µM (inactive)
[4]
  GI50: > 100 µM (inactive)
[5]
  GI50: > 100 µM (inactive)
[6]
  GI50: > 100 µM (inactive)
[7]
  GI50: > 100 µM (inactive)
[8]
  GI50: > 100 µM (inactive)
[9]
  GI50: > 100 µM (inactive)
[10]
  GI50: > 100 µM (inactive)
[11]
  GI50: > 100 µM (inactive)
[12]
  GI50: > 100 µM (inactive)
[13]
  GI50: > 100 µM
[14]
  GI50: > 100 µM (inactive)
[15]
  GI50: > 100 µM (inactive)
[16]
  GI50: > 100 µM (inactive)
[17]
  GI50: > 100 µM (inactive)
[19]
  GI50: > 100 µM (inactive)
[20]
  GI50: > 100 µM (inactive)
[21]
  GI50: > 100 µM (inactive)
[22]
  GI50: > 100 µM (inactive)
[23]
  GI50: > 100 µM (inactive)
[24]
  GI50: > 100 µM (inactive)
[26]
  GI50: > 100 µM (inactive)
[59]
  GI50: > 100 µM (inactive)
[27]
  GI50: > 100 µM (inactive)
[29]
  GI50: > 100 µM (inactive)
[30]
  GI50: > 100 µM (inactive)
[31]
  GI50: > 100 µM (inactive)
[32]
  GI50: > 100 µM (inactive)
[33]
  GI50: > 100 µM (inactive)
[34]
  GI50: > 100 µM (inactive)
[35]
  GI50: > 100 µM (inactive)
[36]
  GI50: > 100 µM (inactive)
[37]
  GI50: > 100 µM (inactive)
[38]
  GI50: > 100 µM (inactive)
[39]
  GI50: > 10 µM (inactive)
[40]
  GI50: > 100 µM (inactive)
[41]
  GI50: > 100 µM (inactive)
[42]
  GI50: > 100 µM (inactive)
[43]
  GI50: > 100 µM (inactive)
[44]
  GI50: > 100 µM (inactive)
[45]
  GI50: > 100 µM (inactive)
[46]
  GI50: > 100 µM (inactive)
[48]
  GI50: > 100 µM (inactive)
[49]
  GI50: > 100 µM (inactive)
[50]
  GI50: > 100 µM (inactive)
[51]
  GI50: > 100 µM (inactive)
[52]
  GI50: > 100 µM (inactive)
[53]
  GI50: > 100 µM (inactive)
[54]
  GI50: > 100 µM (inactive)
[55]
  GI50: > 100 µM (inactive)
[56]
  GI50: > 100 µM (inactive)
[57]
  GI50: > 100 µM (inactive)
[58]
  GI50: > 100 µM (inactive)
